Read-outs that look alike come from different tables or passages of the source.
Tests used:
[1] = system: H4 cells expressing wild-type SOD1; experiment: ATP bioluminescent (CellTiter-Glo) cell viability assay, H4 cells expressing wild-type SOD1; details: wild-type SOD1, dose-response 2.5 to 100 μM, Supplementary Fig. S1
Experimental: Human H4 neuroglioma cells (HTB-148, ATCC) and mouse Neuro2a neuroblastoma cells (CCL-131, ATCC) were cultured in Dulbecco’s modified Eagle’s medium (DMEM) (Gibco) supplemented with 10%v/v Foetal Bovine Serum (FBS) at 37 °C under humidified atmosphere with 5% CO2. Transfection of the Venus-BiFC SOD1 plasmids to H4 cells was carried out using Turbofect™ transfection agent (#R0533, Thermo Fisher Scientific) following protocols from the manufacture. Briefly, 1.5 × 10^5 H4 cells suspended in 1 mL medium were seeded on a well of 4 compartment-glass bottom dish (Cellview™, Greiner Bio-one) and grown at 37 °C for 24 h. 0.25 µg Venus-BiFC plasmids of wild-type or A4V SOD1 homodimer comprised of equimolar concentrations of VN-SOD1 and SOD1-VC were mixed with 1 µL Turbofect in 0.1 mL FBS-free DMEM and incubated at room temperature for 15 min before adding to seeded H4 cells. […] To determine cell viability, 2.5 × 10^4 cells were seeded in 0.2 mL media in a 96-well plate (Corning Costar, #10695951, Thermo Fisher Scientific). Cell viability was measured either using MTS assay (CellTiter 96, #G3580, Promega) on a plate-reader spectrometer (SpectraMax Plus 384, Molecular Devices) or using CellTiter-GloR 2.0 Assay (#G9241, Promega) following the manufacturer’s protocol. […] BMG POLARstar Omega microplate reader was used for luminescence measurement. […]

[2] = system: mouse neuronal N2a cells expressing G93A SOD1; design: method as in PMID 32862101; details: N2a cells expressing G93A SOD1, shown again in Fig. 1B; cited from earlier work
D90A SOD1 = molecular target: T1, D90A SOD1 (Homo sapiens, UniProt P00441, D91A); experiment: Bimolecular fluorescence complementation (BiFC) assay of SOD1 aggregation, D90A; format: cell-based; details: for reduction of aggregates / aggregation propensity: D90A, 50 µM
T1 construct: expressed in transfected cells; host or cells: human H4 neuroglioma cells (HTB-148, ATCC)
Experimental: (§2) Human H4 neuroglioma cells cultured in glass-bottom dishes were transfected with Venus fragments as described above using Turbofect transfection reagent. Transfected H4 cells were stained with 5 µM DRAQ5 nuclear stain (ab108410, Abcam) and incubated at 37 °C for 5 min prior to cell imaging. Live cell imaging was performed on cells maintained in a humidified incubator (37 °C, 5% CO2) using a Zeiss LSM 710 microscope. To obtain large field of view for analysis, images were collected using a 4 × 4 tiles with a 20 × Fluar 0.8 NA (Carl Zeiss, Jena, Germany) at 1024 × 1024 pixels. Excitation of Venus fluorescent protein (VFP) was carried out with 514-nm argon laser while DRAQ5 was excited at 633 nm with a HeNe laser. Emitted light was collected through appropriate filters to eliminate any spill-overs. Image acquisition and processing were carried out using ZEN 2.1 software (Carl Zeiss, Jena Germany).
Following the drug treatment (24 h) of transfected cells and nuclear staining with DRAQ5 for 5 min the tiled images were generated as described above. […] Fiji software[52] was used to determine minimum and maximum diameter of cells and inclusions within the cells in pixel units. These cell/inclusion sizes were then used to set parameters in Cell Profiler[53]. The pipeline was adapted from the Speckle Counter example available from CellProfiler (https://cellprofiler.org/) for the batch analysis of the cells with or without inclusions. The low fluorescent cells missed by the cell profiler were adjusted by manual counting.

[3] = system: SOD1^G93A transgenic mice; experiment: Survival and behavioral experiments of SOD1G93A transgenic mice, chronic oral administration; format: in vivo, mouse; details: for disease onset (mean ± SD): female SOD1G93A mice, 0.016% w/w in powder food (estimated dose 24 mg/kg) from 70 days of age, controls 104.4 ± 8.7 (MR6-8-2) and 106.4 ± 9.0 (MR6-26-2)
Experimental: Transgenic mice expressing human SOD1^G93A with C57BL/6 background (B6.Cg‐Tg(SOD1*G93A)1Gur/J) (RRID: IMSR_JAX:004435) were prepared for in vivo experiments using our published protocol with determination of the times for disease onset and end-stage were previously[25],[61]. […] The diet was replenished three times per week, and the mice had free access to their assigned diet and deionized water. The body weight of the mice and clasping signs were measured every week. Disease onset was determined by the time when the mice reached maximum body weight. The clasping signs were scored as 0 (no sign), 1 (one hindlimb partially retracted), 2 (both hindlimb partially retracted), or 3 (hindlimbs were entirely retracted), as described elsewhere[62],[63]. Rotarod tests were performed every two weeks, as previously described[61],[62]. Briefly, the mice were placed on the rotating rods, which accelerated from 0 to 30 rpm for 5 min with 15 min interval between each trial. The longest latencies to fall from the rotating rods out of three trials were scored. All behavioral experiments were conducted under non-blinded conditions. The mice were housed in the specific pathogen-free (SPF) environment (with a 12 h light‐dark cycle at 23 ± 1 °C and 50 ± 5% humidity) and treated in compliance with the requirements of the Animal Care and Use Committee, Nagoya University. The experiments using genetically modified mice were approved by the Animal Care and Use Committee and the recombinant DNA experiment committee of Nagoya University. All methods used for transgenic mice experiments were in accordance with relevant guidelines and regulations and all methods are reported in accordance with ARRIVE guideline.

[4] = system: H4 cells expressing A4V SOD1; experiment: ATP bioluminescent (CellTiter-Glo) cell viability assay, H4 cells expressing A4V SOD1; format: cell-based, human; details: for cell survival: 10 and 25 μM, 24 h, individual drugs
Experimental: (§1) Human H4 neuroglioma cells (HTB-148, ATCC) and mouse Neuro2a neuroblastoma cells (CCL-131, ATCC) were cultured in Dulbecco’s modified Eagle’s medium (DMEM) (Gibco) supplemented with 10%v/v Foetal Bovine Serum (FBS) at 37 °C under humidified atmosphere with 5% CO2. Transfection of the Venus-BiFC SOD1 plasmids to H4 cells was carried out using Turbofect™ transfection agent (#R0533, Thermo Fisher Scientific) following protocols from the manufacture. Briefly, 1.5 × 10^5 H4 cells suspended in 1 mL medium were seeded on a well of 4 compartment-glass bottom dish (Cellview™, Greiner Bio-one) and grown at 37 °C for 24 h. 0.25 µg Venus-BiFC plasmids of wild-type or A4V SOD1 homodimer comprised of equimolar concentrations of VN-SOD1 and SOD1-VC were mixed with 1 µL Turbofect in 0.1 mL FBS-free DMEM and incubated at room temperature for 15 min before adding to seeded H4 cells. […] To determine cell viability, 2.5 × 10^4 cells were seeded in 0.2 mL media in a 96-well plate (Corning Costar, #10695951, Thermo Fisher Scientific). Cell viability was measured either using MTS assay (CellTiter 96, #G3580, Promega) on a plate-reader spectrometer (SpectraMax Plus 384, Molecular Devices) or using CellTiter-GloR 2.0 Assay (#G9241, Promega) following the manufacturer’s protocol. […] BMG POLARstar Omega microplate reader was used for luminescence measurement. To avoid the interference of the antioxidant compounds (ebselen and its analogues) with the luciferase activity in the presence of oxygen, the drugs containing media was replaced with a fresh medium prior to the addition of the reagent.

H46R SOD1 = molecular target: T2, H46R SOD1 (Homo sapiens, UniProt P00441, H47R); experiment: Bimolecular fluorescence complementation (BiFC) assay of SOD1 aggregation, H46R; format: cell-based; details: 50 µM
T2 construct: expressed in transfected cells; host or cells: human H4 neuroglioma cells (HTB-148, ATCC)
Experimental: as §2
Following the drug treatment (24 h) of transfected cells and nuclear staining with DRAQ5 for 5 min the tiled images were generated as described above. […] Fiji software[52] was used to determine minimum and maximum diameter of cells and inclusions within the cells in pixel units. […]

[5] = system: H4 cells expressing G93A SOD1; experiment: ATP bioluminescent (CellTiter-Glo) cell viability assay, H4 cells expressing G93A SOD1; format: cell-based, human; details: for cell survival: 10 and 25 μM, 24 h, individual drugs; for concentration up to which high level of cells viability is seen: dose-response 2.5 to 100 μM
[6] = system: Neuro2a cells with SOD1^G93A expression; experiment: Proteostasis immunoblotting in cultured Neuro2a cells expressing G93A SOD1; format: cell-based, mouse; details: 10 µM, 24 h; for poly-ubiquitinated proteins: Fig. 6J
Experimental: Neuro2a cells were seeded on 6 well plate (#140685 Corning Costar) at 5.0 × 10^4/well, and transfected with human wild-type or G93A SOD1 expressing plasmid[25] using Lipofectamine 2000 (Thermo Fisher Scientific) according to the manufacturer’s instructions.

[7] = system: SOD1^G93A transgenic mice; design: method as in PMID 32862101; details: cited from earlier work
[8] = system: spinal cords of SOD1^G93A mice; format: in vivo, mouse
Experimental: Immunoblotting and immunofluorescence analyses were performed as described previously. For the analysis of SOD1 oligomers with aberrant disulfide bonds (SOD1 S–S oligomers), sodium dodecyl sulfate–polyacrylamide gel electrophoresis was performed under non-reducing conditions. […] (Medimabs, Montreal, Quebec, Canada) was used at a 1:250 dilution. Other primary antibodies used for the study were anti-β-actin (1:5,000, #A5441, RRID: AB_476744, Sigma-Aldrich), anti-p62 (1:1,000 for immunoblotting, 1:500 for immunohistochemistry, #PM045, RRID: AB_2169714, Medical and Biological Laboratories (MBL), Nagoya, Japan), anti-polyubiquitin (1:1,000 for immunoblotting, 1:500 for immunohistochemistry, #D058‐3, RRID: AB_592937, MBL), and anti-choline acetyltransferase (ChAT) ((1:100 for immunohistochemistry, #AB144P, RRID:AB_2079751, EMD Millipore Corp., Billerica, MA, USA). Rabbit anti-human SOD1 antibody was raised in our laboratory against a recombinant human SOD1 peptide (aa 24–37) and purified with protein A[66].

G93A SOD1 = molecular target: T3, G93A SOD1 (Homo sapiens, UniProt P00441, G94A); experiment: Bimolecular fluorescence complementation (BiFC) assay of SOD1 aggregation, G93A; format: cell-based
T3 construct: expressed in transfected cells; host or cells: human H4 neuroglioma cells (HTB-148, ATCC)
Experimental: Human H4 neuroglioma cells cultured in glass-bottom dishes were transfected with Venus fragments as described above using Turbofect transfection reagent. Transfected H4 cells were stained with 5 µM DRAQ5 nuclear stain (ab108410, Abcam) and incubated at 37 °C for 5 min prior to cell imaging. Live cell imaging was performed on cells maintained in a humidified incubator (37 °C, 5% CO2) using a Zeiss LSM 710 microscope. […]

A4V SOD1 = A4V SOD1 (Homo sapiens, UniProt P00441, A5V)
Experimental: as §1

[9] = Oral bioavailability and pharmacokinetic study in mice; format: in vivo, female CD1 mice
Experimental: The analysis is based on free measurable amounts of free drug in the plasma and thus is likely to be an underestimation of active drug compound due to the extensive serum albumin binding seen with drugs in this class.
F = (AUCINF-PO/mean AUCINF-IV)/(DosePO/DoseIV) × 100%, AUClast was alternatively used for F calculation when AUCINF was not available or beyond 120% of AUClast. The compound were formulated in 5%DMAC + 95% (20% HP-beta-CD in saline) at 0.2 mg/mL for IV dosing and CMC (0.5%), benzyl alcohol (0.5%), Tween 80 (0.4%) and NaCl (0.9%) at 3 mg/mL for PO dosing, respectively. PK parameters were estimated by non-compartmental model using WinNonlin 8.2.

[10] = female, CD1, mouse, in vivo, iv, 1 mg/kg
[11] = female, CD1, mouse, in vivo, po, 30 mg/kg

T1 sequence (P00441 whole entry D91A): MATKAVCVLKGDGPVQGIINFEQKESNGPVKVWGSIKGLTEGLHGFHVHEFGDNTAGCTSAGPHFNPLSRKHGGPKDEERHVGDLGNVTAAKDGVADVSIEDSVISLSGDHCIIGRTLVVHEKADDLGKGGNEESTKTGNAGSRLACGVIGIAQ
T1 sequence (P00441 2-154 D91A limits assumed): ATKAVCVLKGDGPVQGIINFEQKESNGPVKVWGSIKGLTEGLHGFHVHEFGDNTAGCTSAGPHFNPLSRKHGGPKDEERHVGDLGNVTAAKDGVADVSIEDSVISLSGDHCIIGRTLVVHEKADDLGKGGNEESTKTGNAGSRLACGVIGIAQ
T2 sequence (P00441 whole entry H47R): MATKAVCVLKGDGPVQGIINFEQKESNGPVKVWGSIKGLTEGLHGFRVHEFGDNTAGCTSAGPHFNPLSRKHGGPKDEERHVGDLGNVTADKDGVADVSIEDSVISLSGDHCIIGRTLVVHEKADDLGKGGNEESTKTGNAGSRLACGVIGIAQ
T2 sequence (P00441 2-154 H47R limits assumed): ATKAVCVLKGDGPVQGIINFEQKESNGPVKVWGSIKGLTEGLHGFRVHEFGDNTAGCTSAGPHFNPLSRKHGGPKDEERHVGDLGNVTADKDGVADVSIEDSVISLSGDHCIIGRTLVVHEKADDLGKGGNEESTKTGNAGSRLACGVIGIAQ
Chain of A4V SOD1 (P00441 whole entry A5V): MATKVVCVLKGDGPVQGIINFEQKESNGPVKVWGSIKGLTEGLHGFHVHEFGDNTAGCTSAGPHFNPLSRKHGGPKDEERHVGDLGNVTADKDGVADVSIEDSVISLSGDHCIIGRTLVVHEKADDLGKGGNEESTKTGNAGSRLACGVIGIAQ
Chain of A4V SOD1 (P00441 2-154 A5V limits assumed): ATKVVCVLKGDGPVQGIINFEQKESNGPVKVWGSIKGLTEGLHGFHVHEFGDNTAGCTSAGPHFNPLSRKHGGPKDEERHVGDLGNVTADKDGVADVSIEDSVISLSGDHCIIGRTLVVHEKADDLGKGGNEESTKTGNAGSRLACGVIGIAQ
T3 sequence (P00441 whole entry G94A): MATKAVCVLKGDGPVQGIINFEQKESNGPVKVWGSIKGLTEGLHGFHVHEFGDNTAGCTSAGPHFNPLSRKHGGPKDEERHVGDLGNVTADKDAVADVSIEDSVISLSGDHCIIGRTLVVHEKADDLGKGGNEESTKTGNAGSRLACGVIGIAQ
T3 sequence (P00441 2-154 G94A limits assumed): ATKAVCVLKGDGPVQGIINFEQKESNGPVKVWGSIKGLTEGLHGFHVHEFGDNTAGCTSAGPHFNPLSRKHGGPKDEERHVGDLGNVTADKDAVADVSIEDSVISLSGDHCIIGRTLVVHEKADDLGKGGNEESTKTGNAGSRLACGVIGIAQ

O=c1c2ccccc2[se]n1Cc1cccnc1 [MR6-8-2]
concentrations giving a sharp fall of viable cells (toxicity) [1]: above 25 µM | dosage restoring wild-type level viability, lower than edaravone [2]: 100 -fold | reduction of aggregates / aggregation propensity (D90A SOD1): least effective | disease onset (mean ± SD) [3]: 115.5 ± 9.2 days | cell survival [4]: increased the cell survival | reduction of aggregates / aggregation propensity (H46R SOD1): least effective | cell survival [5]: increased the cell survival

Nc1nc2ccc(OC(F)(F)F)cc2s1 [riluzole]
effect on proteostasis [6]: no effect on proteostasis

CC1=NN(c2ccccc2)C(=O)C1 [edaravone]
cell survival [4]: increased the cell survival | insoluble SOD1 species ([6]; Fig. 6I): tendency to reduce insoluble SOD1 | poly-ubiquitinated proteins [6]: little effect | insoluble p62 ([6]; Fig. 6K): little effect | cell survival [5]: increased the cell survival

O=c1c2ccccc2[se]n1-c1ccccc1 [ebselen, 2-phenyl-1,2-benzisoselenazol-3(2H)-one]
reduction of aggregates / aggregation propensity (D90A SOD1): least effective | cell survival [4]: increased the cell survival | concentration up to which high level of cells viability is seen ([4]; dose-response 2.5 to 100 μM): up to 25 µM | reduction of aggregates / aggregation propensity (H46R SOD1): least effective | neuroprotection in SOD1G93A mice by delaying disease onset [7]: partial neuroprotection | cell survival [5]: increased the cell survival | concentration up to which high level of cells viability is seen [5]: up to 25 µM

COc1ccc(Cn2[se]c3ccccc3c2=O)cn1 [MR6-26-2]
dosage restoring wild-type level viability, lower than edaravone [2]: 100 -fold | p62- and poly-ubiquitin-doubly positive inclusions in motor neurons ([8]; 120-days-old SOD1G93A lumbar spinal cord): substantially reduced | SOD1 oligomers with aberrant disulfide bonds in spinal cords ([8]; SOD1G93A mice, 120 days old, non-reducing SDS-PAGE): sharply decreased | misfolded SOD1 (C4F6 antibody) in lumbar spinal cord ([8]; early symptomatic SOD1G93A mice): reduced the accumulation of misfolded SOD1 | motor neuron degeneration (ChAT-positive motor neurons) ([8]; early symptomatic SOD1G93A mice, Fig. 5J): without affecting the motor neuron degeneration | level of poly-ubiquitinated proteins in spinal cords ([8]; immunoblotting, insoluble fractions, 120 days old): decreased | insoluble SOD1 proteins in spinal cords ([8]; mouse, in vivo): sharply decreased | cells with more than 5 inclusions per cell (D90A SOD1; D90A SOD1, 50 µM, 24 h): no cells were detected | reduction of aggregates / aggregation propensity (D90A SOD1): most effective in reducing the aggregates | clasping scores ([3]; SOD1G93A mice, Fig. 5C): improvement | survival time ([3]; SOD1G93A mice, chronic oral): did not show a significant extension | slowing of disease onset ([3]; SOD1G93A mice, oral): approximately 15 days | body weights ([3]; Supplementary Fig. S4): unaffected | rotarod performance ([3]; Supplementary Fig. S4): unaffected | disease onset (mean ± SD) [3]: 121.1 ± 7.2 days | cell survival [4]: increased the cell survival | concentration up to which high level of cells viability is seen ([4]; dose-response 2.5 to 100 μM): up to 25 µM | concentration reviving the cells to maximum level ([4]; dose-response 2.5 to 100 μM, Supplementary Fig. S1): 12.5 µM | poly-ubiquitinated proteins [6]: reduced | cells with more than 5 inclusions per cell (G93A SOD1; G93A SOD1, 50 µM, 24 h): no cells were detected | reduction of aggregates / aggregation propensity (G93A SOD1; G93A, 50 µM): most effective in reducing the aggregates | cells displaying more than 5 inclusions per cell (A4V SOD1; A4V SOD1, 50 µM, 24 h, 75% in untreated cells): 29% | reduction of aggregates / aggregation propensity (A4V SOD1; A4V, 50 µM): most effective in reducing the aggregates | drug concentration found to reduce the aggregates effectively (A4V SOD1; A4V, doses 25, 50 and 100 µM, Fig. 3A): 50 µM | AUC(0-inf) [9, 10]: 203 ng·h/mL | AUC(0-t) [9, 10]: 197 ng·h/mL | MRT inf [9, 10]: 0.267 h | Vd [9, 10]: 1.37 L/kg | clearance [9, 10]: 85.7 mL/min/kg | AUC(0-inf) [9, 11]: 1790 ng·h/mL | AUC(0-t) [9, 11]: 1730 ng·h/mL | CL [9, 11]: 4.17 mL/min/kg | MRTINF [9, 11]: 29.5 h | bioavailability [9, 11]: 29% | half-life [9, 11]: 1.5 h | half-life ([9]; female, CD1, mouse, plasma, IV dose at 1 mg/kg, mean, read-out: T1/2 (converted)): 0.347 h | half-life ([9]; female, CD1, mouse, plasma, oral dose of 30 mg/kg, mean, read-out: T1/2 (converted)): 1.35 h | clearance ([9]; mouse, in vivo): fast clearance | reduction of aggregates / aggregation propensity (H46R SOD1): most effective in reducing the aggregates | cell survival [5]: increased the cell survival | concentration up to which high level of cells viability is seen [5]: up to 25 µM
